Assays:
BCL6 BTB domain = BCL6 BTB domain (Homo sapiens (Human), UniProt P41182); experiment: Surface plasmon resonance (SPR) assay; type: binding; details: BCL6 BTB domain captured on SA chip, single cycle kinetics
[1] = system: BCL6 reporter construct (3xBCL6-TK-Luc) in SuDHL4 cells; experiment: Cell-based luciferase assay; details: Homo sapiens, SU-DHL-4, 48 h, read-out: Luciferase-Assay EC50, uM), SuDHL4-3xBCL6-TK-Luc cells, two days, high dose 10 uM
Method in brief: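 SuDHL4 cells stably carrying a 3×BCL6-site TK-promoter firefly luciferase reporter, seeded at 15,000 cells/well, were dosed over a 10-point range (top 10 uM) and grown two days at 37 °C, 5% CO2. Luminescence then read after adding neolite reagent at room temperature.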

Karpas422 cells = experiment: Tumor cell growth inhibition assay; type: cell-based; details: Homo sapiens, KARPAS-422, 144 h, read-out: Tumor Growth Inhibition in Karpas-422 (IC50, uM), Karpas422 cells, six days, ATPlite
Method in brief: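 Karpas422 cells (2,000/well) in Alpha-MEM with 10% FBS dosed across 10 concentrations (top 5 uM) and grown six days at 37° C., 5% CO2. Viability read as ATPlite luminescence.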

| SMILES | Kd (BCL6 BTB domain) [nM] | EC50 [1] [µM] | IC50 (Karpas422 cells) [µM] |
| --- | --- | --- | --- |
| COc1c(O)c(C(N)=O)cc(-c2cn(CC(=O)Nc3cc(N4C[C@@H](C)N[C@@H](C)C4)ncc3Cl)c3ncn(C)c(=O)c23)c1F [Compound I-193] | 229 | 5.39 | 2.66 |
| Cc1c(N2CCOCC2)ncc(F)c1NC(=O)Cn1cc(-c2cc(Cl)c(O)c(C(N)=O)c2)c2c(=O)n(C)cnc21 [Compound I-194] | 120 | 11 | 5.65 |
| Cn1cnc2c(c(-c3cc(Cl)c(O)c(C(N)=O)c3)cn2CC(=O)Nc2cc(N3CCOCC3)c(F)cc2Cl)c1=O [Compound I-195] | 196 | 1.5 | 1.08 |
| Cn1cnc2c(c(-c3cc(C(N)=O)c(O)c(Cl)c3F)cn2CC(=O)Nc2cc(N3CCOCC3)ncc2F)c1=O [Compound I-196] | 323 | 6.34 | 10 |
| COc1c(O)c(C(N)=O)cc(-c2cn(CC(=O)Nc3cc(N4CCOCC4)ncc3F)c3ncn(C)c(=O)c23)c1F [Compound I-197] | 218 | 4.01 | 10 |
| C[C@@H](CO)Nc1cc(NC(=O)Cn2cc(-c3cc(Cl)c(O)c(C(N)=O)c3)c3c(=O)n(C)cnc32)c(Cl)cn1 [Compound I-198] | 21.7 | 5.82 | 3.02 |
| Cc1nc2c(c(-c3cc(F)c(O)c(C(N)=O)c3)cn2CC(=O)Nc2cc(N3CC4CCC(C3)O4)ncc2Cl)c(=O)n1C [Compound I-199] | 8.18 | 0.117 | 0.0909 |
| Cn1cnc2c(c(-c3cc(Cl)c(O)c(C(N)=O)c3)cn2CC(=O)Nc2cc(N3CCOCC3)nc(F)c2Cl)c1=O [Compound I-200] | 17.9 | 0.158 | 0.133 |
| Cn1cnc2c(c(-c3cc(Cl)c(O)c(C(N)=O)c3)cn2CC(=O)Nc2cc(N3CC(C)(C)NC(C)(C)C3)ncc2Cl)c1=O [Compound I-201] | 11.1 | 0.317 | 0.155 |
| CC[C@@H]1CN(c2cc(NC(=O)Cn3cc(-c4cc(Cl)c(O)c(C(N)=O)c4)c4c(=O)n(C)cnc43)c(Cl)cn2)CCO1 [Compound I-202] | 23.9 | 0.211 | 0.156 |
| CC[C@H]1CN(c2cc(NC(=O)Cn3cc(-c4cc(Cl)c(O)c(C(N)=O)c4)c4c(=O)n(C)cnc43)c(Cl)cn2)CCO1 [Compound I-203] | 30.6 | 0.222 | 0.187 |
| CC(C)[C@H]1CN(c2cc(NC(=O)Cn3cc(-c4cc(Cl)c(O)c(C(N)=O)c4)c4c(=O)n(C)cnc43)c(Cl)cn2)CCO1 [Compound I-204] | 35.7 | 0.251 | 0.146 |
| CC(C)[C@@H]1CN(c2cc(NC(=O)Cn3cc(-c4cc(Cl)c(O)c(C(N)=O)c4)c4c(=O)n(C)cnc43)c(Cl)cn2)CCO1 [Compound I-205] | 43.6 | 0.248 | 0.457 |
| Cc1nc2c(c(-c3cc(Cl)c(O)c(C(N)=O)c3)cn2CC(=O)Nc2cc(N3CCN(C)C[C@@H]3C)ncc2Cl)c(=O)n1C [Compound I-206] | 9.34 | 0.122 | 0.128 |
| Cc1nc2c(c(-c3cc(F)c(O)c(C(N)=O)c3)cn2CC(=O)Nc2cc(N3CCN(C)C[C@@H]3C)ncc2Cl)c(=O)n1C [Compound I-207] | 4.45 | 0.0429 | 0.0703 |
| Cn1cnc2c(c(-c3cc(Cl)c(O)c(C(N)=O)c3)cn2CC(=O)Nc2cc(F)nc(F)c2F)c1=O [Compound I-208] | 567 | 5.15 | 1.2 |
| C=Cc1cc(NC(=O)Cn2cc(-c3cc(Cl)c(O)c(C(N)=O)c3)c3c(=O)n(C)cnc32)c(Cl)cn1 [Compound I-209] | 51 | 0.296 | 0.343 |

| SMILES | Kd (BCL6 BTB domain) [nM] | EC50 [1] [µM] | IC50 (Karpas422 cells) [µM] |
| --- | --- | --- | --- |
| Cn1cnc2c(c(-c3cc(Cl)c(O)c(C(N)=O)c3)cn2CC(=O)Nc2c(F)c(F)nc(F)c2Cl)c1=O [Compound I-210] | 1100 | 14.9 | 6.16 |
| Cn1cnc2c(c(-c3cc(Cl)c(O)c(C(N)=O)c3)cn2CC(=O)NC2CCCCC2)c1=O [Compound I-211] | 1210 | 10 | 10 |
| Cn1cnc2c(c(-c3cc(Cl)c(O)c(C(N)=O)c3)cn2CC(=O)Nc2cc(N3CCOCC3(C)C)ncc2Cl)c1=O [Compound I-212] | 28.4 | 0.494 | 0.457 |
| Cn1cnc2c(c(-c3cc(Cl)c(O)c(C(N)=O)c3)cn2CC(=O)Nc2cc3c(cc2Cl)OCCN3CCN2CCOCC2)c1=O [Compound I-213] | 18.6 | 0.842 | 0.878 |
| Cn1cnc2c(c(-c3cc(Cl)c(O)c(C(N)=O)c3)cn2CC(=O)Nc2cc3c(cc2Cl)OCC(=O)N3CCN2CCOCC2)c1=O [Compound I-214] | 31.2 | 1.35 | 0.855 |
| CN(C)CC1CN(c2cc(NC(=O)Cn3cc(-c4cc(Cl)c(O)c(C(N)=O)c4)c4c(=O)n(C)cnc43)c(Cl)cn2)CCO1 (stereo not drawn) [Compound I-215] | 9.81 | 0.806 | 0.662 |
| C[C@H]1COCCN1c1cc(NC(=O)Cn2cc(-c3cc(Cl)c(O)c(C(N)=O)c3)c3c(=O)n(C)c(C(F)(F)F)nc32)c(Cl)cn1 [Compound I-216] | 76.4 | 0.97 | 0.831 |
| Cn1cnc2c(c(-c3cc(F)c(O)c(C(N)=O)c3)cn2CC(=O)Nc2cc(N3CCOCC3)ncc2F)c1=O [Compound I-217] | 26.6 | 0.727 | 0.382 |
| C[C@@H]1CN(c2cc(NC(=O)Cn3cc(-c4cc(F)c(O)c(C(N)=O)c4)c4c(=O)n(C)cnc43)c(Cl)cn2)C[C@H](C)N1 [Compound I-218] | 16.4 | 0.975 | 0.563 |
| Cn1cnc2c(c(-c3cc(F)c(O)c(C(N)=O)c3)cn2CC(=O)Nc2cc(N3CCOCC3)c(F)cc2Cl)c1=O [Compound I-219] | 70.9 | 0.535 | 0.216 |
| CN1C(C)(C)CN(c2cc(NC(=O)Cn3cc(-c4cc(F)c(O)c(C(N)=O)c4)c4c(=O)n(C)cnc43)c(Cl)cn2)CC1(C)C [Compound I-221] | 14.1 | 0.14 | 0.11 |
| Cn1cnc2c(c(-c3cc(C(N)=O)c(O)cc3F)cn2CC(=O)Nc2cc(N3CCOCC3)ncc2F)c1=O [Compound I-222] | 228 | 1.33 | 0.371 |
| Cn1cnc2c(c(-c3cc(C(N)=O)c(O)c(F)c3F)cn2CC(=O)Nc2cc(N3CC4CCOC4C3)ncc2Cl)c1=O (stereo not drawn) [Compound I-224] | 22.4 | 2.02 | 0.651 |
| C[C@@H]1CN(c2cc(NC(=O)Cn3cc(-c4cc(C(N)=O)c(O)c(F)c4F)c4c(=O)n(C)cnc43)c(Cl)cn2)C[C@H](C)N1 [Compound I-225] | 115 | 20.5 | 4.34 |
| Cc1nc2cc(Cl)c(NC(=O)Cn3cc(-c4cc(C(N)=O)c(O)c(F)c4F)c4c(=O)n(C)cnc43)cc2o1 [Compound I-226] | 468 | 5.12 | 1.89 |
| Cn1cnc2c(c(-c3cc(C(N)=O)c(O)c(F)c3F)cn2CC(=O)Nc2cc(N3CCOCC3)c(F)cc2Cl)c1=O [Compound I-227] | 420 | 2.5 | 2.16 |
| C[C@@H]1CN(C)C[C@H](C)N1c1cc(NC(=O)Cn2cc(-c3cc(C(N)=O)c(O)c(F)c3F)c3c(=O)n(C)cnc32)c(Cl)c(F)n1 [Compound I-229] | 16.3 | 0.102 | 0.0784 |
